Laboratory results taken from patent US8105835B2, “Method for micropropagation of monocots based on sustained totipotent cell cultures” (The University of South Carolina, priority 2007, dated 2012).

Experiments:
[1] = system: Arundo donax explants (cross-sectional segments of immature inflorescence); assay: Phosphinothricin selection of explants on primary solid culture medium; assay type: cell-based; details: 10 mg/L, four weeks selection, FIG. 6A
Procedure: Agrobacterium tumefaciens carrying the plasmid, pMSF3022, was used to transform Arundo donax explants (cross-sectional segments of immature inflorescence). Plasmid pMSF3022 carries the bar gene that confers resistance to phosphinothricin and provides a positive selection and the gfp (green fluorescent protein) gene which provides a visual selection of transformants. Antibiotic resistant transformants were selected for four weeks after gene transfer by incubating the explants on primary solid culture medium with or without phosphinothricin and containing ticarcillin at […] concentration to eliminate residual Agrobacterium. As shown in FIG. 6A control explants (untransformed) were killed by 10 mg/L of phosphinothricin (antibiotic/herbicide). In the absence of the antibiotic/herbicide, the control explants develop embryogenic callus (FIG. 6B). In contrast, the explants that were cocultivated with the A. tumefaciens carrying the plasmid, pMSF3022 (transformed), were able to develop embryogenic callus in the presence of 10 mg/L of phosphinothricin (FIG. 6C).

[2] = system: monocot embryogenic cell culture; assay: Transfer of culture from auxin plus cytokinin medium to medium with cytokinin only; assay type: cell-based; details: medium without auxin but maintaining the cytokinin
Procedure: As known to those of skill in the art, cytokinins, both natural and synthetic, are used to induce shoot formation while inhibiting root formation (Trigiano and Gray, Plant tissue culture concepts and laboratory exercises. Second ed., Boca Raton: CRC Press (2000)).
In one embodiment, the tertiary medium is prepared by adding to sterile water (a) the cytokinin, thidiazuron; (b) sucrose, 30 g/l; (c) Miller's salt solution (6% w/v, KH2 PO4), about 3 ml; and (d) MS salts, 4.3 g/l. In one embodiment the concentration of the thidiazuron is from about 0.01 mg/l to about 1 mg/l. In another embodiment, the concentration of the thidiazuron is about 0.02 mg/l.

## CP(=O)(O)CC[C@H](N)C(=O)O [phosphinothricin]
[1]
  effect on control (untransformed) explants: killed

## O=C(Nc1ccccc1)Nc1cnns1 [thidiazuron]
[2]
  effect on shoot elongation and root formation: not only was shoot elongation promoted but unexpectedly root formation also resulted
